Series [1] in a line: Cell viability assay (MTT), normal cells. In kind it is cell-based. To be noted: human, MCF-10A normal mammary gland epithelial cells, four-day incubation. Here is the method:
The impact of novel compounds 10a-o and 13a-e on cell viability was examined using the MCF-10A (human mammary gland epithelial) normal cell line. The MTT test was employed to assess the cell viability of the novel compounds after a four-day incubation with MCF-10A cells ([El-Sherief et al., 2019]; [Ramadan et al., 2020]).
The effects of compounds 10a-o and 13a-e on cell viability were assessed using the human mammary gland epithelial normal cell line (MCF-10A). The MTT assay assessed the cell viability of compounds 10a-o and 13a-e following a four-day incubation with MCF-10A cells ([El-Sherief et al., 2019]; [Ramadan et al., 2020]). Check Supplementary Appendix A for additional information.
4.2. Biological evaluation
4.2.1 Cell Viability assay (MTT assay)
MTT assay was performed to investigate the effect of the synthesized compounds on mammary epithelial cells (MCF-10A). The cells were propagated in medium consisting of Ham's F-12 medium/ Dulbecco's modified Eagle's medium (DMEM) (1:1) supplemented with 10% foetal calf serum, 2 mM glutamine, insulin (10 μg/mL), hydrocortisone (500 ng/mL) and epidermal growth factor (20 ng/mL). Trypsin ethylenediamine tetra acetic acid (EDTA) was used to passage the cells after every 2-3 days. 96-well flat-bottomed cell culture plates were used to seed the cells at a density of 10^4 cells mL-1. The medium was aspirated from all the wells of culture plates after 24 h followed by the addition of synthesized compounds (in 200 μL medium to yield a final concentration of 0.1% (v/v) dimethyl sulfoxide) into individual wells of the plates.
Four wells were designated to a single compound. The plates were allowed to incubate at 37°C for 96 h. Afterwards, the medium was aspirated and 3-[4,5-dimethylthiazol-2-yl]-2,5-diphenyltetrazolium bromide (MTT) (0.4 mg/mL) in medium was added to each well and subsequently incubated for 3 h. The medium was aspirated and 150 μL dimethyl sulfoxide (DMSO) was added to each well. The plates were vortexed followed by the measurement of absorbance at 540 nm on a microplate reader. The results were presented as inhibition (%) of proliferation in contrast to controls comprising 0.1%

The subject of another series is tubulin. The series is described as follows: Tubulin polymerization inhibition assay (Cytoskeleton kit).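 On all read-outs here: Cell-free tubulin polymerization read by fluorescent reporter enhancement over a 30 min reaction, with the compound-free kit control taken as 100% activity and inhibition relative to it.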 To be noted: for Tub. enzyme inhibition assay %inhibition / Tub %inh: 30 min; for Tub. enzyme inhibition assay %inhibition: codes 522-537 run; for Tub. enzyme inhibition assay K. Activity: control = 120, codes 522-537 run; for IC50: read-out: Tubulin inhibition IC50 ± SEM, triplicate for each tested concentration; for Tub. (IC50) IC50±SD: supplement raw data, lab codes; for Tub %inh: YB-EGY run; for Tub K.Activity: EC = 120, YB-EGY run.

Another series deals with prostatic - PC-3. Nature of the series: Antiproliferative assay (MTT) PC-3. To be noted: read-out: Antiproliferative activity IC50 ± SEM (µM) PC-3; PC-3, MTT.
The test system of the next series is breast - MCF-7. The series is described as follows: Antiproliferative assay (MTT) MCF-7. To be noted: read-out: Antiproliferative activity IC50 ± SEM (µM) MCF-7; MCF-7, MTT.
Another series relates to colon - HCT-116. Nature of the series: Antiproliferative assay (MTT) HCT-116. To be noted: read-out: Antiproliferative activity IC50 ± SEM (µM) HCT-116; HCT-116, MTT.
For the next series, the system named is pancreatic - MDAMB-231. The series is described as follows: Antiproliferative assay (MTT) MDAMB-231. To be noted: read-out: Antiproliferative activity IC50 ± SEM (µM) MDAMB-231; MDAMB-231, MTT.
Series [2] relates to four human cancer cell lines (HCT-116, PC-3, MCF-7, MDAMB-231). Nature of the series: Antiproliferative assay, mean of four cell lines (GI50). To be noted: Homo sapiens, read-out: GI50 (average IC50).

The text below walks through data of article PMC12040969, “Design, synthesis, in silico studies, and apoptotic antiproliferative activity of novel thiazole-2-acetamide derivatives as tubulin polymerization inhibitors” (Frontiers in Chemistry, 2025).

What is called viability is a read-out of living cells in per cent, often relative to untreated cells. The IC50 is the point on the concentration scale where inhibition reaches its midpoint.

As for `Cc1ccc(-c2csc(NC(=O)CSc3nc(C)c(C(=O)/C=C/c4ccc(Cl)cc4)s3)n2)cc1` [Compound 10l, (E)-2-((5-(3-(4-chlorophenyl)acryloyl)-4-methylthiazol-2-yl)thio)-N-(4-(p-tolyl)thiazol-2-yl)acetamide], in series [1], the viability at 96 h, 50 µM was 89%. Moreover, the “Tub. enzyme inhibition assay %inhibition” value with tubulin (conc 0.01 (unit not given)) was found to be 1.85%; in the series with tubulin (conc 0.1 (unit not given)), 10.9%; with tubulin (conc 1 (unit not given)) it was 24.6%; in the series with tubulin (conc 10 (unit not given)), 49.3%; in the series with tubulin (conc 100 (unit not given)), 79.5%. Further, the “Tub. enzyme inhibition assay K. Activity” value with tubulin (conc 0.01 (unit not given)) is recorded as 117.78; in the series on tubulin (conc 0.1 (unit not given)), 106.95; in the series on tubulin (conc 1 (unit not given)), 90.43; in the series on tubulin (conc 10 (unit not given)), 60.835; in the series on tubulin (conc 100 (unit not given)) it was 24.585. For the same compound, the IC50 in the series with tubulin is 13.9 ± 0.51 µM. In addition, the “Tub. (IC50) IC50±SD” value with tubulin amounted to 7.331 ± 0.27 µg/mL.

Take `Cc1ccc(/C=C/C(=O)c2sc(SCC(=O)Nc3nc(-c4ccc(C)cc4)cs3)nc2C)cc1` [Compound 10n, (E)-2-((4-methyl-5-(3-(p-tolyl)acryloyl)thiazol-2-yl)thio)-N-(4-(p-tolyl)thiazol-2-yl)acetamide]: the viability at 96 h, 50 µM in series [1] worked out at 89%. Also, the “Tub. enzyme inhibition assay %inhibition” value in the series with tubulin (conc 0.01 (unit not given)) amounted to 2.01%; with tubulin (conc 0.1 (unit not given)) it was 8.94%; in the series on tubulin (conc 1 (unit not given)), 26.1%; in the series with tubulin (conc 10 (unit not given)), 49.9%; with tubulin (conc 100 (unit not given)) it was 76.7%. Also, the “Tub. enzyme inhibition assay K. Activity” value in the series with tubulin (conc 0.01 (unit not given)) is 117.59; in the series with tubulin (conc 0.1 (unit not given)), 109.27; in the series with tubulin (conc 1 (unit not given)), 88.73; in the series with tubulin (conc 10 (unit not given)), 60.139; in the series with tubulin (conc 100 (unit not given)), 27.908. In addition, the IC50 in the series on tubulin is 16 ± 0.59 µM. The “Tub. (IC50) IC50±SD” value in the series on tubulin was 8.075 ± 0.3 µg/mL.

In turn, `Cc1nc(SCC(=O)Nc2nccs2)sc1C(=O)/C=C/c1ccccc1` [Compound 13a, (E)-2-((5-cinnamoyl-4-methylthiazol-2-yl)thio)-N-(thiazol-2-yl)acetamide] had a viability at 96 h, 50 µM in series [1] of 89%. Besides, the Tub %inh with tubulin (conc 0.1 (unit not given)) is recorded as 5.68%; with tubulin (conc 1 (unit not given)) it was 16.6%; with tubulin (conc 10 (unit not given)), 32.4%; in the series on tubulin (conc 50 (unit not given)) it was 62.4%; in the series on tubulin (conc 100 (unit not given)) it was 78.7%. The “Tub K.Activity” value is 113.18 with tubulin (conc 0.1 (unit not given)); 100.09 in the series with tubulin (conc 1 (unit not given)); 81.141 with tubulin (conc 10 (unit not given)); 45.076 in the series on tubulin (conc 50 (unit not given)); 25.608 in the series on tubulin (conc 100 (unit not given)). Besides, the IC50 with tubulin was determined as 15.8 ± 0.48 µM.

In turn, `COc1ccc(/C=C/C(=O)c2sc(SCC(=O)Nc3nccs3)nc2C)cc1` [Compound 13e, (E)-2-((5-(3-(4-methoxyphenyl)acryloyl)-4-methylthiazol-2-yl)thio)-N-(thiazol-2-yl)acetamide] came in with a viability at 96 h, 50 µM in series [1] of 91%. Moreover, the Tub %inh with tubulin (conc 0.1 (unit not given)) is given as 7.07%; in the series on tubulin (conc 1 (unit not given)), 16.4%; in the series with tubulin (conc 10 (unit not given)), 26.3%; in the series on tubulin (conc 50 (unit not given)), 41.7%; in the series on tubulin (conc 100 (unit not given)), 75.9%. The “Tub K.Activity” value with tubulin (conc 0.1 (unit not given)) turned out to be 111.52; in the series with tubulin (conc 1 (unit not given)), 100.36; in the series on tubulin (conc 10 (unit not given)) it was 88.403; with tubulin (conc 50 (unit not given)) it was 69.965; in the series with tubulin (conc 100 (unit not given)), 28.968. For the same compound, the IC50 in the series with tubulin is 39.9 ± 1.22 µM.

As to `COc1cccc2c1C(=O)c1c(O)c3c(c(O)c1C2=O)C[C@@](O)(C(=O)CO)C[C@@H]3O[C@H]1C[C@H](N)[C@H](O)[C@H](C)O1` [Doxorubicin, reference compound], the IC50 is 9 ± 0.6 µM in the series on prostatic - PC-3; 4 ± 0.2 µM in the series with breast - MCF-7; 5 ± 0.3 µM with colon - HCT-116; 3 ± 0.1 µM in the series with pancreatic - MDAMB-231; 5 µM in series [2].

For `CNC(=O)c1cc(Oc2ccc(NC(=O)Nc3ccc(Cl)c(C(F)(F)F)c3)cc2)ccn1` [Sorafenib, reference compound], the IC50 with prostatic - PC-3 is 12 ± 0.9 µM; in the series with breast - MCF-7 it was 7 ± 0.3 µM; in the series on colon - HCT-116, 6 ± 0.3 µM; in the series on pancreatic - MDAMB-231, 8 ± 0.4 µM; in series [2], 8 µM.
